Measured values reported in paper PMC3975428, “Dimers of G-Protein Coupled Receptors as Versatile Storage and Response Units” (International Journal of Molecular Sciences, 2014).
Blank lines part the entries; values can stand above or below the compound they belong to.

How the values were obtained:
[1] = test system: Y2 receptor aggregates (rabbit kidney); assay: Y2 receptor aggregates, sedimentation after treatment, rabbit kidney particulates; assay type: biochemical; details: 15 min at 24 °C
Procedure: (§1) Figure 5. […] Particulates from rabbit kidney (A) and anterior hypothalamus (B) were incubated with 20 μM GγS or 10 μM U73122 for 15 min at 24 °C, sedimented, resuspended, labeled with 50 pM [^125I]hPYY(3–36) for 15 min at 24 °C, resedimented, lysed at 10 mM each digitonin and cholate and sedimented through a 10%–30% linear sucrose gradient for 6 h at 218,000× g and 5 °C, followed by gradient fractionation and counting. TEXT PRINTED IN THE PICTURE: (A) GγS: Bottom count: 10.8% | (A) U73122: Bottom count: 25.4% | (B) GγS: Bottom count: 8.98 % | (B) U73122: Bottom count: 17.4 %
(§2) Rabbit kidney postmitochondrial particulates, rabbit piriform cortex and hypothalamic crude synaptosomes and CHO cell postnuclear particulates were prepared as described previously. After solubilization of particulates at 10 mM each of digitonin and sodium cholate in buffer A or B, the lysates were spun for 10 min at 1000× g to remove debris, and the supernatants sedimented for periods indicated in figure captions at 218,000× gmax through linear 5%–20% sucrose gradients (10 mL, made in buffer A). The gradients were divided by bottom dripping in 23 fractions of 0.45 mL. The sedimentation positions were calibrated with [^125I]-labeled bovine γ-globulin (158 kDa), human iron-saturated transferrin (75 kDa) and ovalbumin (44 kDa), and with colorized myosin (211 kDa), producing a linear relation of migration to molecular weight (R^2 > 0.99).

[2] = test system: Y2 receptor aggregates (anterior hypothalamus); assay: Y2 receptor aggregates, sedimentation after treatment, rabbit anterior hypothalamus particulates; assay type: biochemical; details: 20 μM, 15 min at 24 °C, 10%–30% gradient 6 h at 218,000× g
Procedure: as §1
as §2, with “The sedimentation positions were calibrated with [^125I]-labeled bovine γ-globulin (158 kDa), human iron-saturated transferrin (75 kDa) and ovalbumin (44 kDa), and with colorized myosin (211 kDa), producing a linear relation of migration to molecular weight (R^2 > 0.99).” left out

[3] = test system: aggregated Y2 receptor material (rabbit kidney and CHO-Y2 particulates); assay: Release of aggregated Y2 receptor material (bottom of 5%–20% gradients); assay type: biochemical; details: 20 μM
Procedure: More than 30% of the Y2 binding in rabbit kidney postmitochondrial particulates, and more than 20% in the CHO-Y2 postnuclear particulates sediments to the bottom of 5%–20% sucrose gradients over 18 h at 218,000× gmax, corresponding to weight in excess of 1000 kDa. A large part of this material sediments at 30,000× gmax over 10 min, and could be considered as aggregated. […] This preliminary experiment points to potential of such procedures in quantitation of effector-associated receptors at the level of dimers and monomers. There also is a promise of gaining more insight on the size and significance of receptor oligomers incorporating more than two receptor monomers.
as §2

[4] = test system: 180 kDa heteropentamer (Y2 receptor dimer, G-protein trimer); assay: Nucleotide labeling / conversion of 180 kDa heteropentamer to 90 kDa Gi3α-receptor monomer; assay type: biochemical
Procedure: (§3) The receptors were labeled for 30 min at 25 °C in respective particulates (50 μg protein/assay), employing not more than 50 pM [^125I]-labeled agonist peptides (as stated in individual experiments). Higher molar inputs of agonist peptides would produce significant Gα activation within short exposures (e.g., [24, 53]). The basal assay buffer contained 0.2% proteinase-free bovine serum albumin, 20 mM hepes.NaOH (pH 7.4), 1 mM diisopropylfluorophosphate, 0.04% bacitracin, and 10 μg/mL each of proteinase inhibitors aprotinin, bestatin, chymostatin, leupeptin and pepstatin. Depending on experiment design, this was supplemented by 3 mM CaCl2 and 1 mM MgCl2, (buffer A) or by 1 mM Na EDTA, pH 7.4 (buffer B). The nucleotide site labeling at 200 pM [^35S]GγS was for 30 min at 28 °C after pre-activation for 30 min at 28 °C at 3 μM GDP in the basal buffer with 50 μM EDTA, 100 mM NaCl and 4 mM MgCl2, and without CaCl2 (buffer C). All subsequent operations were carried out at 0–5 °C. The assays were terminated by sedimentation for 10 min at 30,000× gmax, followed by surface wash of the pellets.
as §2, with “0.99). […]” for “0.99).”

G-protein α subunit = assay: Stability of GγS labeling; assay type: biochemical; details: 4 °C
Procedure: as §3

CHO-Y1 dimers = details: ADP-ribosylation of Gi type α subunits; cited from earlier work
Text: (§4) This could be of interest in many physiological conditions. The loss of CHO-Y1 and CHO-Y2 dimers due to neutralization of Gi type α subunits through ADP-ribosylation by pertussis toxin [16, 29] could be viewed as a constitutive equivalent of the reduction shown in Figure 4. In conditions of normal Gi utilization in CHO-Y2, the di ...

CHO-Y2 dimers = details: ADP-ribosylation of Gi type α subunits; cited from earlier work
Text: as §4

NPY receptor dimers = details: via ADP-ribosylation of Gαi subunits; cited from earlier work
Text: The virtues of oligomerization for GPCRs are many. Oligomers would have much larger ability than monomers to anchor to the membranes, rafts and vesicles. Protein (including the receptor) removal by particulate (proteasomal and/or lysosomal) proteolysis is found to be much less for dimers compared to monomers, as is also observed for enzyme carriers. This is dramatically confirmed by elimination of NPY receptor dimers by pertussis toxin via ADP-ribosylation of Gαi subunits. Association with transducers and effectors could also be enhanced for the dimers. Chances ...

[5] = test system: Y2 receptor dimers (CHO cells); assay: Dimer content of Y2 receptors labeled by [^125I]PYY(3–36) in density gradients; assay type: binding, human receptor in CHO cells; details: duplicate gradients; for dimer content: labeled 30 min at 25 °C; for content of dimer: particulates from CHO cells, labeled 20 min at 27 °C
Procedure: Figure 1. Stability of agonist-labeled Y2 receptor dimers to incubation at 27 °C and to removal of divalent cations. Duplicate 5%–20% gradients (see Section 3.3) were centrifuged for 18 h at 5 °C. All results are average percentages of total counts in the corresponding gradient fractions from two gradients for each condition. The respective standard errors were in most cases below 10%, and for clarity are not shown. (A) Y2 receptor dimers in particulates from CHO cells are stable to incubation at 27 °C. The incubation of particulate suspension in the assay buffer at 27 °C was for 1 h (followed by 2 h at 0–4 °C) or 3 h, while the control suspension was incubated in ice for 3 h. […] The content of dimer, in % total gradient counts, was 66.2 ± 3.7 for 4 °C control, 63.4 ± 3.4 after preincubation for 1 h at 27 °C, and 64.3 ± 3.4 after preincubation for 3 h at 27 °C; (B) Y2 receptor dimers are not disbanded by removal of divalent cations.
as §3, with “Higher” for “The receptors were labeled for 30 min at 25 °C in respective particulates (50 μg protein/assay), employing not more than 50 pM [^125I]-labeled agonist peptides (as stated in individual experiments). Higher”
as §2

[6] = test system: rabbit kidney Y2 receptor; assay: PYY(3–36) binding to rabbit kidney Y2 receptor (heteropentamer and monomer forms); details: rabbit kidney particulates, digitonin and cholate lysis
[7] = test system: Y2 receptor (hypothalamic particulates); assay: Rundown of Y2 agonist tracer, anterior hypothalamus; assay type: biochemical, rabbit; details: 50 pM, 60 min at 25 °C, Ca^2+/Mg^2+ buffer
Text: (§5) Figure 2. Rundown of the Y2 agonist is much faster in tissues with large Gi/o content. […] The rabbit kidney cortex has a much lower expression of Gi/o subunits than the anterior hypothalamus (The Bmax for [^35S]GγS binding is more than 20-fold higher in hypothalamic tissue (ref. [24], Table 2). However, the kidney Y2 receptor is expressed at about four times the level of the hypothalamic. The above parameters in the Ca^2+/Mg^2+ buffer lead to a much faster transduction with hypothalamic particulates (graph A); and a considerable (58%) rundown of the tracer peptide relative to 1 mM EDTA buffer. In the same assay, the relative rundown is only 12% with kidney particulates (graph B).
as §3, with “The nucleotide site labeling at 200 pM [^35S]GγS was for 30 min at 28 °C after pre-activation for 30 min at 28 °C at 3 μM GDP in the basal buffer with 50 μM EDTA, 100 mM NaCl and 4 mM MgCl2, and without CaCl2 (buffer C). All subsequent operations were carried out at 0–5 °C. The assays were terminated by sedimentation for 10 min at 30,000× gmax, followed by surface wash of the pellets.” left out

[8] = test system: Y2 receptor (rabbit kidney cortex particulates); assay: Rundown of Y2 agonist tracer, kidney cortex; assay type: biochemical; details: 50 pM, 60 min at 25 °C, Ca^2+/Mg^2+ buffer
Text: as §5
Higher molar inputs of agonist peptides would produce significant Gα activation within short exposures (e.g., [24, 53]). The basal assay buffer contained 0.2% proteinase-free bovine serum albumin, 20 mM hepes.NaOH (pH 7.4), 1 mM diisopropylfluorophosphate, 0.04% bacitracin, and 10 μg/mL each of proteinase inhibitors aprotinin, bestatin, chymostatin, leupeptin and pepstatin. Depending on experiment design, this was supplemented by 3 mM CaCl2 and 1 mM MgCl2, (buffer A) or by 1 mM Na EDTA, pH 7.4 (buffer B). […]

Gi/o subunits = details: hypothalamic vs. rabbit kidney cortex; Table 2; cited from earlier work
Text: Figure 2. Rundown of the Y2 agonist is much faster in tissues with large Gi/o content. […] The rabbit kidney cortex has a much lower expression of Gi/o subunits than the anterior hypothalamus (The Bmax for [^35S]GγS binding is more than 20-fold higher in hypothalamic tissue (ref. [24], Table 2). However, the kidney Y2 receptor is expressed at about four times the level of the hypothalamic. The above parameters in the Ca^2+/Mg^2 ...

[9] = test system: 180 kDa heteropentamer and 90 kDa monomer-Gi α of Y2 receptor; details: 10 mM CHAPS, cited from earlier work
Text: The stability and affinity of agonist association with CHO-Y2 receptors could also be analyzed at the level of dimers and monomers by extraction and precipitation procedures coupled to competition binding assays (Figure 6). […] The 180 kDa labeled material is not sensitive to ...

[10] = test system: neuropeptide Y (NPY) receptor dimers; details: cited from earlier work
Text: The most studied and probably the most frequent complexes of eukaryotic heptahelical receptors are those with G-protein αβγ heterotrimers. With many GPCR dimers these assemblies survive solubilization by steroid detergents such as digitonin and cholate and could be detected as ~180 kDa heteropentamers by density gradient centrifugation ([15, 16]; see also Figure 1 in this study) and also can be solubilized by acylamine oxide surfactants such as lauryldimethylamine oxide (LDAO) and detected by circular dichroism spectroscopy. The frequently used zwitterionic detergents, e.g., CHAPS (3 ...

main form yielded from Y2 receptor aggregates ([1]; particulates from rabbit tissues (kidney and anterior hypothalamus), GγS 20 μM or U73122 10 μM): mainly Gi-Y2 monomer | Bottom count ([1]; rabbit kidney, 20 μM, 10%–30% gradient 6 h at 218,000× g): 10.8% | Bottom count [2]: 8.98% | part of aggregated material released [3]: A considerable part | labeling of G-protein trimer in 180 kDa heteropentamer [4]: not labeled
Compound: Nc1nc2c(ncn2[C@@H]2O[C@H](COP(=O)(O)OP(=O)(O)OP(O)(O)=S)[C@@H](O)[C@H]2O)c(=O)[nH]1 [GγS, Guanosine 5′-O-(γ-thiotriphosphate)]
form of released material [3]: largely in the form of activated monomers | conversion of 180 kDa heteropentamer ([4]; 1–5 mM Mg^2+, micromolar GDP or GγS): does convert to immunoprecipitable 90 kDa Gi3α-receptor monomer | stability of G-protein α subunit labeling (G-protein α subunit): stable at 4 °C

Compound: pertussis toxin
effect on CHO-Y1 dimers (CHO-Y1 dimers): loss | effect on CHO-Y2 dimers (CHO-Y2 dimers): loss | effect on NPY receptor dimers (NPY receptor dimers): elimination

degradation of the receptor-bound tracer [6]: very low | rundown of the tracer peptide relative to 1 mM EDTA buffer [7]: 58% | rundown of the tracer peptide relative to 1 mM EDTA buffer [8]: 12%
Compound: [^125I]PYY(3–36): Monoiodinated HPLC-purified [^125I]human PYY(3–36), labeled Y2 agonist
dimer content ([5]; buffer A (3 mM CaCl2, 1 mM MgCl2)): 65.9 ± 4.7 % gradient counts | dimer content ([5]; buffer B (1 mM Na EDTA, divalent cations removed)): 60.8 ± 4.6 % gradient counts | content of dimer ([5]; 4 °C control (3 h in ice)): 66.2 ± 3.7 % total gradient counts | content of dimer ([5]; preincubation 1 h at 27 °C (then 2 h at 0–4 °C)): 63.4 ± 3.4 % total gradient counts | content of dimer ([5]; preincubation 3 h at 27 °C): 64.3 ± 3.4 % total gradient counts

Compound: Nc1nc2c(ncn2C2OC(COP(=O)(O)OP(=O)(O)OP(O)(O)=[35S])C(O)C2O)c(=O)[nH]1 (centres unmarked) [[^35S]GγS, [^35S]guanosine 5′-(γ-thio)triphosphate]
Bmax for binding, hypothalamic relative to kidney tissue (Gi/o subunits): more than 20 fold

Compound: C[C@H](CCC(=O)NCCC[N+](C)(C)CCCS(=O)(=O)[O-])[C@H]1CC[C@H]2[C@@H]3[C@H](O)C[C@@H]4C[C@H](O)CC[C@]4(C)[C@H]3C[C@H](O)[C@]12C [CHAPS, 3-[3-cholamidopropyldimethylammonio]-1-propanesulfonate]
sensitivity of 180 kDa binding ([9]; relative to 90 kDa zone): much less sensitive | effect on 90 kDa zone agonist binding [9]: completely dissociates | effect on NPY receptor dimers [10]: tend to destabilize
